Experiments:
[1] = tested on: SW1353 cells; assay: Proliferation of SW1353 cells cultured beforehand with or without GW9662; assay type: cell-based, human
Protocol: Cells of the human chondrosarcoma cell line, SW1353, were cultured in the same manner as that of Example 1 until they became sub-confluent, then, GW9662, which is an irreversible antagonist of PPARγ, was added to the cells at a final concentration of 1 μM, and the cells were cultured for 60 minutes. Then, zaltoprofen was added to the cells at various concentrations of 100, 200, 300, and 400 μM, color development was performed with Cell. Counting Kit-8 (CCK-8, Dojindo) 72 hours thereafter, absorbance was measured at 450 nm further 3 hours thereafter, and the result was compared with the absorbance observed with adding only DMSO not dissolving GW9662 (FIG. 68).

[2] = tested on: giant cell tumor of bone; assay: Curative effect of zaltoprofen (Soleton Tablet) on patients with giant cell tumor of bone; assay type: in vivo, human
Protocol: Soleton Tablet 80 (generic name: zaltoprofen, 80 mg, Nippon Chemiphar) was administered to a patient with giant cell tumor of bone (GCTB), patient with giant cell tumor of tendon sheath (GCTT), or patient with pigmented villonodular synovitis (PVNS) at a dose of 3 tablets per day (one tablet was administered in the morning, at noon, and in the evening), and the tumor size was evaluated by MRI every several months.
Soleton Tablet 80 (generic name: zaltoprofen, 80 mg, Nippon Chemiphar) was administered to patients with giant cell tumor of bone at a dose of 3 tablets per day (one tablet was administered in the morning, at noon, and in the evening). Four weeks after the start of the administration, the tumor size was evaluated by imaging based on simple Roentgen contrast method, X-ray CT, and MRI (nuclear magnetic resonance imaging). Then, the tumors were excised from patients for whom surgical operation was possible, administration of zaltoprofen was continued at a dose of 240 mg per day (one 80 mg tablet was administered at the time of breakfast, lunch, and supper), and the tumor size was evaluated by imaging based on simple Roentgen contrast method, X-ray CT, and MRI (nuclear magnetic resonance imaging) every 16 weeks. Also for patients for whom surgical operation was difficult, administration of zaltoprofen was continued at a dose of 240 mg per day (one 80 mg tablet was administered at the time of breakfast, lunch, and supper), and the tumor size was evaluated by imaging based on simple Roentgen contrast method, X-ray CT, and MRI (nuclear magnetic resonance imaging) every 8 weeks.

[3] = tested on: PPARγ expression in GCTB cultured cells; assay: PPARγ immunostaining of GCTB cultured cells; assay type: cell-based, human; settings: zaltoprofen 10, 50, 100, 200 μM; 24 hours; about 15% in the control
Protocol: The GCTB cultured cells of the aforementioned case 1 were cultured on chamber cover slide glass, and 24 hours thereafter, zaltoprofen was added at various concentrations (10, 50, 100, and 200 μM). After 24 hours, the cells were fixed with 4% paraformaldehyde, and immunohistochemical staining of PPARγ was performed. The PPARγ protein was fluorescently detected by using the antibody SC-7273 of Santa Cruz Biotechnology, Inc. as the primary antibody and the rat anti-mouse IgG FITC (11-4011-85) of eBioscience as the secondary antibody. Observation was performed with a fluorescence microscope (BZ-9000) of Keyence, and positive images for each concentration were quantitatively observed (FIGS. 6 and 7).

[4] = tested on: SW1353 cells; assay: Suppression of cell proliferation of chondrosarcoma cell line SW1353 (CCK-8); assay type: cell-based, human; settings: drug at various concentrations
Description: The H-EMC-SS cells were obtained from the Riken BioResource Center. As the SW1353 cells, those obtained from ATCC were used.

[5] = tested on: PPARγ expression in giant cell tumor of bone (GCTB); assay: PPARγ staining of operational excision sample of GCTB patient administered with zaltoprofen; assay type: in vivo, human; settings: 3 tablets per day Soleton Tablet 80 for about 28 days
Protocol: An operational excision sample of a person who had been administered with 3 tablets per day of the zaltoprofen tablets, Soleton Tablet 80 (generic name: zaltoprofen, 80 mg, Nippon Chemiphar) for about 28 days for pain due to the tumor, and then subjected to the operation, and an operational excision sample of giant cell tumor of bone excised from a patient with giant cell tumor of bone not administered with zaltoprofen (case in which tumor was excised by usual surgical operation according to standard therapy) as a control were subjected to staining of PPARγ, and expression of PPARγ was analyzed by PCR. For PCR, Hs_PPARG_1_SGQuantiTect Primer Assay (200) (QT00029841) of QIAGEN was used. Observation was performed with a fluorescence microscope (BZ-9000) of Keyence (FIG. 11).

[6] = tested on: human PVNS cells; assay: Proliferation of human PVNS cells cultured beforehand with PPARγ siRNA or control siRNA; assay type: cell-based; settings: PPARγ siRNA 100 nM 48 hours, 100 μM rosiglitazone or 400 μM zaltoprofen
[7] = tested on: SW1353 cells; assay: Cell invasion of SW1353 cells (Matrigel Invasion Chamber); assay type: cell-based, human
Description: For the analysis of cell invasion, Matrigel™ Invasion Chamber (BD Bioscience, catalog number 354480), which uses Matrigel as the matrix, was used. […] FIGS. 76 and 77 show microphotographs of invaded cells fixed by immersion into a 4% paraformaldehyde solution, and stained with hematoxylin (magnification is 200 times). From the microphotographs of FIGS. 76 and 77, the patterns of the invaded cells can be understood.

[8] = among the 13 cases of GCTB, zaltoprofen 240 mg per day

CC(C(=O)O)c1ccc2c(c1)CC(=O)c1ccccc1S2 (stereo not shown) [zaltoprofen]
cell proliferation-suppressing action after preincubation with GW9662 ([1]; SW1353, GW9662 1 μM, 60 minutes beforehand): markedly reduced by GW9662
suppression of proliferation of SW1353 cells ([1]; zaltoprofen 100, 200, 300, 400 μM, 72 hours): suppressed by zaltoprofen in a concentration-dependent manner
response evaluation ([2]; GCTB case a): PR (“partial response (PR)” means a state that the total of sizes of tumor has decreased by 30% or more)
shrinkage of tumor size ([2]; GCTB case a (person, pelvis)): more than 70%
recurrence after excision by surgical operation ([2]; GCTB case a, up to today): no recurrence has been observed
diameter of the giant cell tumor of bone after taking zaltoprofen ([2]; GCTB case c, proximal part of left fibula, about nine weeks, 23.3 mm before): 21.0 mm
diameter of the giant cell tumor of bone after taking zaltoprofen ([2]; GCTB case d, distal part of right tibia, about eight weeks, 21.7 mm before): 20.5 mm
change of giant cell tumor of bone ([2]; GCTB case g): did not shrink, but it also did not grow
KPS score after taking zaltoprofen ([2]; GCTB case g, score 80 before): 100
growth of the giant cell tumor of bone ([2]; GCTB case j (Zometa and artery embolization used in combination)): about 6%
KPS score after taking zaltoprofen ([2]; GCTB case j, score 50 before): 90
growth of the giant cell tumor of bone ([2]; GCTB case k): about 10%
KPS score after taking zaltoprofen ([2]; GCTB case k, score 80 before): 90
increase of the size of the giant cell tumor of bone ([2]; GCTB case l (printed case 1; left knee part), took only about a half of the prescribed dose): 19.8%
response evaluation ([2]; GCTB case m (printed case in; person, proximal part of right tibia, multiple metastases to the lung)): PD (“progressive disease (PD)” means a state that the total of sizes of tumor has increased by 20% or more, and increased by 5 mm or more in terms of absolute value, or a state that new lesion has appeared)
KPS score after taking zaltoprofen ([2]; GCTB case m, score 90 before): 100
number of cases with hardening of bones on X-ray CT images ([2]; GCTB cases a, b, d, g, i, and j): 6 cases
KPS score after taking zaltoprofen ([2]; GCTB cases a, c, and d, score 80 before): 90
change of giant cell tumors of bone ([2]; GCTB cases a, c, d, e, and f, no treatment except zaltoprofen): shrank
new metastasis during the taking of zaltoprofen ([2]; GCTB patients): any new metastasis of giant cell tumor of bone was not observed
recurrence during the taking of zaltoprofen after ablative operation ([2]; GCTB patients subjected to ablative operation): no recurrence of giant cell tumor of bone could be confirmed
number of cases diagnosed partial response (PR) [2, 8]: one
number of cases diagnosed progressive disease (PD) [2, 8]: one
cases in which the KPS score worsened ([2]; cases of giant cell tumor of bone who took zaltoprofen): no case in which the KPS score worsened
MRI finding indicated by arrows ([2]; recurrence of GCTB in the pelvic part (case a), after two months (FIG. 35) and four months (FIG. 36)): tumor necrosis region
tumor size by MRI ([2]; recurrence of GCTB in the pelvic part (person; case a), 3 tablets per day, after two months and four months): gradual shrinkage of the tumor
expression of PPARγ (ratio of PPARγ-positive cells) [3]: increased in a zaltoprofen concentration-dependent manner
suppression of cell proliferation (absorbance at 450 nm) [4]: suppressed proliferation
fat cell differentiation in excision sample [5]: fat cell differentiation could be confirmed
PPARγ-expressing cells in excision sample ([5]; vs patient not administered): PPARγ-expressing cells could be confirmed
cell proliferation-suppressing action with PPARγ siRNA [6]: substantially completely eliminated
cell injury seen in microphotographs of invaded cells ([7]; 100 μM troglitazone, 50 μM celecoxib or 400 μM zaltoprofen, cells only sparsely existed and rolled into small balls): cell injury was realized
cell invasion remaining (suppressed to) ([7]; 400 μM zaltoprofen, 24 hours): lower than 20%
suppression of cell invasion of SW1353 cells ([7]; all set concentrations, concentration-dependent, 24 hours): suppressed the cell invasion

Reference: patent US10653667B2, “Drug for preventing, treating or preventing metastasis of giant cell tumor that occurs in bone or soft parts, chondrosarcoma, or osteosarcoma, local injection for arterial embolization, and artificial bone” (NIPPON CHEMIPHAR CO., LTD, priority 2013, dated 2020)
